# Laboratory results published in ChEMBL document CHEMBL1909046, “DrugMatrix in vitro pharmacology data”.
# Molecular target: T1, Endothelin-1 receptor (Homo sapiens, UniProt P25101); also: in other assays of this panel Not Active means under 50% inhibition at 10 µM
# T1 sequence (P25101 whole entry): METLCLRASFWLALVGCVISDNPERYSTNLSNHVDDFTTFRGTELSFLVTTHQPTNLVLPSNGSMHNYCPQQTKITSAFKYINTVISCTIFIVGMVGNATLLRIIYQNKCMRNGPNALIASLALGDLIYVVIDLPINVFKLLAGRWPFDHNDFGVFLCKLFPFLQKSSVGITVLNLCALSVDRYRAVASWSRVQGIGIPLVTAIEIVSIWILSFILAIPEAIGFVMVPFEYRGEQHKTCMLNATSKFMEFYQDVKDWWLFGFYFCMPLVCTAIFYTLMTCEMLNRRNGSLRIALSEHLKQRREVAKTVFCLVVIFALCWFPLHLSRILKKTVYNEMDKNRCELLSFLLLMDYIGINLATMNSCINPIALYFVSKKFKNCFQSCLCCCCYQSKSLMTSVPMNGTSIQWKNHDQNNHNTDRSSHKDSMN
# Assay: not given
# Assay type: cell membranes, Membrane
# Details: cho-k1
row,Compound,IC50
1,CC(C)NC[C@@H](O)COc1cccc2ccccc12 [DEXPROPRANOLOL],Not Active
2,CC(C)NC[C@H](O)COc1cccc2ccccc12 [LEVOPROPRANOLOL],Not Active
3,"O=C(O)CCCCC1CCSS1 (stereo not drawn) [LIPOIC ACID, ALPHA]",Not Active
4,CN(C)C(=O)C(CCN1CCC(O)(c2ccc(Cl)cc2)CC1)(c1ccccc1)c1ccccc1 [LOPERAMIDE],Not Active
5,Clc1ccc(COC(Cn2ccnc2)c2ccc(Cl)cc2Cl)c(Cl)c1 (centres undefined) [MICONAZOLE],Not Active

# Molecular target: Glycine receptor (Rattus norvegicus, UniProt P22771+P24524+P07727+P20781); also: in other assays of this panel Not Active means under 50% inhibition at 10 µM
# Assay: not given
# Assay type: cell membranes, Wistar, Spinal cord, Membrane
# Details: not given
row,Compound,IC50
1,CC(C)NC[C@@H](O)COc1cccc2ccccc12 [DEXPROPRANOLOL],Not Active
2,CC(C)NC[C@H](O)COc1cccc2ccccc12 [LEVOPROPRANOLOL],Not Active
3,"O=C(O)CCCCC1CCSS1 (stereo not drawn) [LIPOIC ACID, ALPHA]",Not Active
4,CN(C)C(=O)C(CCN1CCC(O)(c2ccc(Cl)cc2)CC1)(c1ccccc1)c1ccccc1 [LOPERAMIDE],Not Active
5,Clc1ccc(COC(Cn2ccnc2)c2ccc(Cl)cc2Cl)c(Cl)c1 (centres undefined) [MICONAZOLE],Not Active

# Molecular target: T2, 3-hydroxy-3-methylglutaryl-coenzyme A reductase (Homo sapiens, UniProt P04035);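 also: enzyme inhibition assay of HMG-CoA reductase using radiolabeled [14C]HMG-CoA as substrate; in other assays of this panel Not Active means under 50% inhibition at 10 µM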
# T2 sequence (P04035 whole entry): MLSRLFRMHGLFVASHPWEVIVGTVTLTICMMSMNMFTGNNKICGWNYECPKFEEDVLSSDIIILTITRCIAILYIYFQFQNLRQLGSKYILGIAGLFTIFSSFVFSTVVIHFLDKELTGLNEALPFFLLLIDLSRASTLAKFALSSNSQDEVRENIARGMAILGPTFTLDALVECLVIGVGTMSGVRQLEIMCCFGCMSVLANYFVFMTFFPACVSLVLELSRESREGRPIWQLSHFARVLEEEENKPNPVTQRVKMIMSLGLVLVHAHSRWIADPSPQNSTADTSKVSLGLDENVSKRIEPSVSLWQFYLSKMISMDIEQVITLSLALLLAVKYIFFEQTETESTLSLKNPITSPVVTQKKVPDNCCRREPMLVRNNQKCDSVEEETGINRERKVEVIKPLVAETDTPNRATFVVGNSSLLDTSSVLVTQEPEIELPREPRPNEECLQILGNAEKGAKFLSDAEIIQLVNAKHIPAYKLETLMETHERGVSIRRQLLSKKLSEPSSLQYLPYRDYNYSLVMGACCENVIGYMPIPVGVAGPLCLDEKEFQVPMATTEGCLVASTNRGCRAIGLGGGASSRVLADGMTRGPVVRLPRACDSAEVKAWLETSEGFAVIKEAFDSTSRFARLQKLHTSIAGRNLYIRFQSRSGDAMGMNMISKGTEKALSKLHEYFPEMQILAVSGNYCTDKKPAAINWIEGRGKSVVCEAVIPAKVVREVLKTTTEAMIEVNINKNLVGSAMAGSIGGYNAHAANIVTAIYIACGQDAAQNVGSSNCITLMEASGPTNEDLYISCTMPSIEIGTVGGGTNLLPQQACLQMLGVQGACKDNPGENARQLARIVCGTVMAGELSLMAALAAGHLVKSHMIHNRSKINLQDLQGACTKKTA
# Assay: not given
# Set-up: species or system Escherichia coli
# Details: not given
row,Compound,IC50
1,CC(C)NC[C@@H](O)COc1cccc2ccccc12 [DEXPROPRANOLOL],Not Active
2,CC(C)NC[C@H](O)COc1cccc2ccccc12 [LEVOPROPRANOLOL],Not Active
3,"O=C(O)CCCCC1CCSS1 (stereo not drawn) [LIPOIC ACID, ALPHA]",Not Active
4,CN(C)C(=O)C(CCN1CCC(O)(c2ccc(Cl)cc2)CC1)(c1ccccc1)c1ccccc1 [LOPERAMIDE],Not Active
5,Clc1ccc(COC(Cn2ccnc2)c2ccc(Cl)cc2Cl)c(Cl)c1 (centres undefined) [MICONAZOLE],Not Active

# Molecular target: T3, Polyunsaturated fatty acid lipoxygenase ALOX15 (Oryctolagus cuniculus, UniProt P12530);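 also: inhibition of 15-lipoxygenase enzyme activity measured with linoleic acid as the substrate; in other assays of this panel Not Active means under 50% inhibition at 10 µM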
# T3 sequence (P12530 whole entry): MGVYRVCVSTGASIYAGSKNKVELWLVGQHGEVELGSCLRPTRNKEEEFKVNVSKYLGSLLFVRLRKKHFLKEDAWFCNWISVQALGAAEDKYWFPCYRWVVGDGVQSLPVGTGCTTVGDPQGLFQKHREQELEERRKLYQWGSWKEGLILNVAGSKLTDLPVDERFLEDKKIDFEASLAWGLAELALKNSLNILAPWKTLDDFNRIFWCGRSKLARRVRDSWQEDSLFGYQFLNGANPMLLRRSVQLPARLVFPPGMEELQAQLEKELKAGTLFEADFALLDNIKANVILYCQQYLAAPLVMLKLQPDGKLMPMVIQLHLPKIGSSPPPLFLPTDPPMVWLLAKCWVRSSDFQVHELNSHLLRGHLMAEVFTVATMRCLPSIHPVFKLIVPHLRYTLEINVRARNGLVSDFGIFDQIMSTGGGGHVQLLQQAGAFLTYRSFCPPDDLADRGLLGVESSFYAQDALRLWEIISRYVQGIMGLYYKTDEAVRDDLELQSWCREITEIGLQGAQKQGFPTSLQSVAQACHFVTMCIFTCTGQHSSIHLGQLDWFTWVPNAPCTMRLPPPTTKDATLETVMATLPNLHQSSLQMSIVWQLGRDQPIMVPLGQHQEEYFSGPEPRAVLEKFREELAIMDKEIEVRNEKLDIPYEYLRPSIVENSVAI
# Assay: biochemical
# Assay type: tissue-based, Reticulocytes
# Details: reticulocytes
row,Compound,IC50
1,CC(C)NC[C@@H](O)COc1cccc2ccccc12 [DEXPROPRANOLOL],Not Active
2,CC(C)NC[C@H](O)COc1cccc2ccccc12 [LEVOPROPRANOLOL],Not Active
3,"O=C(O)CCCCC1CCSS1 (stereo not drawn) [LIPOIC ACID, ALPHA]",Not Active
4,CN(C)C(=O)C(CCN1CCC(O)(c2ccc(Cl)cc2)CC1)(c1ccccc1)c1ccccc1 [LOPERAMIDE],Not Active
5,Clc1ccc(COC(Cn2ccnc2)c2ccc(Cl)cc2Cl)c(Cl)c1 (centres undefined) [MICONAZOLE],Not Active

# Molecular target: T4, Muscarinic acetylcholine receptor M4 (Homo sapiens, UniProt P08173); also: in other assays of this panel Not Active means under 50% inhibition at 10 µM
# T4 sequence (P08173 whole entry): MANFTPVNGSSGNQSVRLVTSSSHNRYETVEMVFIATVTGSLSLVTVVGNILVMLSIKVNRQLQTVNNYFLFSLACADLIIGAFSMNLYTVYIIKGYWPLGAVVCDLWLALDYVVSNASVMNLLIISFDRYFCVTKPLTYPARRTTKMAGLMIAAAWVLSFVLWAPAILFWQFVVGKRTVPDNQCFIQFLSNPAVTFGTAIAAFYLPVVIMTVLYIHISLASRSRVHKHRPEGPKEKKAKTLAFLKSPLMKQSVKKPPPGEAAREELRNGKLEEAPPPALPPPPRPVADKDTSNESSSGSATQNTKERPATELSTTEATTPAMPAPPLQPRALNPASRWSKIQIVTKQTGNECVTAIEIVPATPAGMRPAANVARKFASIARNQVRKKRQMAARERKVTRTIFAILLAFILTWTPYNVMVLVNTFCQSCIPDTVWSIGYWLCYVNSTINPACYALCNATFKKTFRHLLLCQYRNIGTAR
# Assay: not given
# Assay type: cell membranes, CHO-K1, Membrane
# Details: cho-k1
row,Compound,IC50
1,CC(C)NC[C@@H](O)COc1cccc2ccccc12 [DEXPROPRANOLOL],Not Active
2,CC(C)NC[C@H](O)COc1cccc2ccccc12 [LEVOPROPRANOLOL],Not Active
3,"O=C(O)CCCCC1CCSS1 (stereo not drawn) [LIPOIC ACID, ALPHA]",Not Active
4,CN(C)C(=O)C(CCN1CCC(O)(c2ccc(Cl)cc2)CC1)(c1ccccc1)c1ccccc1 [LOPERAMIDE],Not Active

# Same assay, conditions: read-out: IC50
row,Compound,IC50 [µM]
1,Clc1ccc(COC(Cn2ccnc2)c2ccc(Cl)cc2Cl)c(Cl)c1 (centres undefined) [MICONAZOLE],3.2

# Same assay, conditions: read-out: Ki
row,Compound,Ki [µM]
1,Clc1ccc(COC(Cn2ccnc2)c2ccc(Cl)cc2Cl)c(Cl)c1 (centres undefined) [MICONAZOLE],0.446

# Molecular target: Epidermal growth factor receptor (Homo sapiens, UniProt P00533)
# Assay: DRUGMATRIX: Protein Tyrosine Kinase, EGF Receptor enzyme inhibition (substrate: Poly(Glu:Tyr))
# Assay type: cell-based, Insect cells
# Details: Not Active = under 50% inhibition at 10 µM; read-out: IC50
# Epidermal growth factor receptor, sequence (P00533 whole entry): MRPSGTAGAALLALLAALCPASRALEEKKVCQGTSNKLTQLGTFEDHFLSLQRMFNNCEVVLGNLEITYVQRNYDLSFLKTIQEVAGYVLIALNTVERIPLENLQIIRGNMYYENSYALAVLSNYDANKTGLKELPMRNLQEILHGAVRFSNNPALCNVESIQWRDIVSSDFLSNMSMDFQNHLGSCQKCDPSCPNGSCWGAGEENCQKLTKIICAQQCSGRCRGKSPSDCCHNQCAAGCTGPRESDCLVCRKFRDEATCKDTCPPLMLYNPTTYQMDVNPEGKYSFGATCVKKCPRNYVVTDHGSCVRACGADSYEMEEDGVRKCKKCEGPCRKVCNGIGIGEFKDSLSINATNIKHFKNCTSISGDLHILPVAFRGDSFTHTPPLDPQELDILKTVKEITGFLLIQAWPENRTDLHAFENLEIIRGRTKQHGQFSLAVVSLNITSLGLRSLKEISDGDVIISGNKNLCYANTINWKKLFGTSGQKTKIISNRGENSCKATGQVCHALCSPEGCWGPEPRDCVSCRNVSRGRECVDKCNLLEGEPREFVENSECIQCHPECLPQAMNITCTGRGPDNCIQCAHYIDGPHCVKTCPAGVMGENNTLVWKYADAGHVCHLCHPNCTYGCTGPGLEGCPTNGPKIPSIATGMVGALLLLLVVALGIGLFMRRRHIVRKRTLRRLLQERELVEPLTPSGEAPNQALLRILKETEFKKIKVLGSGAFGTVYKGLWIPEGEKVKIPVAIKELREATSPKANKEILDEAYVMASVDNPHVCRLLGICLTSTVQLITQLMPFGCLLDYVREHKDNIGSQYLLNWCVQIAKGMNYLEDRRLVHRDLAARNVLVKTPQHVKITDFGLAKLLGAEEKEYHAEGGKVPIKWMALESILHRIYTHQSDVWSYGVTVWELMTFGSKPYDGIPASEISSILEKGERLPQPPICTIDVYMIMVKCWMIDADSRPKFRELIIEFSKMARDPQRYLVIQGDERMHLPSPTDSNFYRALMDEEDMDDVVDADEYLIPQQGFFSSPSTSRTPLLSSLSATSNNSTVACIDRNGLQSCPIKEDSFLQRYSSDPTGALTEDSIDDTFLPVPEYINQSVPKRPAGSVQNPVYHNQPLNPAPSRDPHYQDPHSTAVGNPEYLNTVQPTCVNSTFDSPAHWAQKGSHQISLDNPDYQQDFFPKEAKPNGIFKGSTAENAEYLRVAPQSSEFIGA
row,Compound,IC50 [µM]
1,Clc1ccc(COC(Cn2ccnc2)c2ccc(Cl)cc2Cl)c(Cl)c1 (centres undefined) [MICONAZOLE],29.3

# Same assay, conditions: insect cells; Not Active = under 50% inhibition at 10 µM
row,Compound,IC50
1,CC(C)NC[C@@H](O)COc1cccc2ccccc12 [DEXPROPRANOLOL],Not Active
2,CC(C)NC[C@H](O)COc1cccc2ccccc12 [LEVOPROPRANOLOL],Not Active
3,"O=C(O)CCCCC1CCSS1 (stereo not drawn) [LIPOIC ACID, ALPHA]",Not Active
4,CN(C)C(=O)C(CCN1CCC(O)(c2ccc(Cl)cc2)CC1)(c1ccccc1)c1ccccc1 [LOPERAMIDE],Not Active

# Molecular target: Cytochrome P450 3A4 (Homo sapiens, UniProt P08684); also: in other assays of this panel Not Active means under 50% inhibition at 10 µM
# Assay: not given
# Details: bti-tn-5b1-4
# Cytochrome P450 3A4, sequence (P08684 whole entry): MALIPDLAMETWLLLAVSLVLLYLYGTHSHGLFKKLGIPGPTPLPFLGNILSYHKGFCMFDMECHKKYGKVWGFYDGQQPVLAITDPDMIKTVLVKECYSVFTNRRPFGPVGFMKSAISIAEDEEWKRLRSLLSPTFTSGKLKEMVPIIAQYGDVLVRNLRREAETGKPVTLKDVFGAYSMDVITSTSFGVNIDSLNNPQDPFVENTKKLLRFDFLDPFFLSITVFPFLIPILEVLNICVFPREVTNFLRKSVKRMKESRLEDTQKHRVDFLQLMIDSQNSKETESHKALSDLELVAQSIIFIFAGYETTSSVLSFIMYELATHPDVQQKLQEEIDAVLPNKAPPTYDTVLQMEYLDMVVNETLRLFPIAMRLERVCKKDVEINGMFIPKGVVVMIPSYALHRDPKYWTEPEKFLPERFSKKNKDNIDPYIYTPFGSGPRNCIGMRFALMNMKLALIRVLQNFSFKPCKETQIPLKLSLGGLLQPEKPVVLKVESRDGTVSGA
Compound,IC50,Ki
CC(C)NC[C@@H](O)COc1cccc2ccccc12 [DEXPROPRANOLOL],Not Active,Not Active
CC(C)NC[C@H](O)COc1cccc2ccccc12 [LEVOPROPRANOLOL],Not Active,Not Active
"O=C(O)CCCCC1CCSS1 (stereo not drawn) [LIPOIC ACID, ALPHA]",Not Active,Not Active
CN(C)C(=O)C(CCN1CCC(O)(c2ccc(Cl)cc2)CC1)(c1ccccc1)c1ccccc1 [LOPERAMIDE],Not Active,Not Active
